Assay results as given in PMC4601599, “High-resolution structures of Lactobacillus salivarius transketolase in the presence and absence of thiamine pyrophosphate” (Acta Crystallographica. Section F, Structural Biology …, 2015).

Legend:
[1] = biological target: T1, LsTktA (Lactobacillus salivarius UCC118 transketolase) (Ligilactobacillus salivarius, UniProt Q1WQU8); assay: X-ray crystal structure of co-crystal, […] A; type: binding; details: Mg2+; co-crystallised with 0.5 mM TPP and 2 mM MgCl2; pH 7.5; 293 K; site at dimer interface
T1 construct: gene tktA; pOPINF, His-tagged, expressed in E. coli Rosetta pLysS (DE3); 680 residues with tag; 662 residues modelled; homodimer; megaplasmid pMP118-encoded
T1 sequence (Q1WQU8 1-663): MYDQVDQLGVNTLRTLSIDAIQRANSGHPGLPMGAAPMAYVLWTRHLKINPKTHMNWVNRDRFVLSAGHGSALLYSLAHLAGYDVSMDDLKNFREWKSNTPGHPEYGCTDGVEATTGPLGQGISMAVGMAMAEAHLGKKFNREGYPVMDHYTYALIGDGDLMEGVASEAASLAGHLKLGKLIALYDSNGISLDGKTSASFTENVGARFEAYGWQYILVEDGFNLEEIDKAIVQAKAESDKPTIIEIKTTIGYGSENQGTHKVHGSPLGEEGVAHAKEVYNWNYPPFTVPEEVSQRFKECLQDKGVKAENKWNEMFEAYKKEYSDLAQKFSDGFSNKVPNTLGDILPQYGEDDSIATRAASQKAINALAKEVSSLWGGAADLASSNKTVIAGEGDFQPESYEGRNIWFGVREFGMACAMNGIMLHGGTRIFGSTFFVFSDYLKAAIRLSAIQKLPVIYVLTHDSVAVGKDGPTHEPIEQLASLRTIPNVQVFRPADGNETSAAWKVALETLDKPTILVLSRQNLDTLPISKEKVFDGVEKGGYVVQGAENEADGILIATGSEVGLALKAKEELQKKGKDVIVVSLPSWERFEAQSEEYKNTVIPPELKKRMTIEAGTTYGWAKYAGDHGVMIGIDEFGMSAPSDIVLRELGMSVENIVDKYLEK

[2] = biological target: the molecule itself; assay: SEC-MALS; Superdex 200 Increase 10/300 GL, 20 mM Tris-HCl pH 7.5, 200 mM NaCl, 0.5 mM TCEP, 20 C, with and without 0.5 mM TPP; about 1 mg/ml; dimer and monomer

## Cc1ncc(C[n+]2csc(CCOP(=O)(O)OP(=O)(O)O)c2C)c(N)n1 [thiamine pyrophosphate]
[1]
  X-ray crystal structure of co-crystal, 2.29 A: Two symmetrical TPP cofactor-binding sites are located at the LsTktA dimer interface

B1: Lactobacillus salivarius UCC118 transketolase (LsTktA) (enzyme, UniProt Q1WQU8 1-663, looked up)
chain: T1 sequence (Q1WQU8 1-663)
notes: Transketolase (tktA, LSL_1946) of Lactobacillus salivarius UCC118, encoded on the megaplasmid pMP118; the histidine-tagged protein consists of 680 amino acids; 662 amino acids are modelled in the crystal structures; Crystallised apo and with TPP and Mg2+; also called L. salivarius Tkt; LSL_1946; source: E. coli Rosetta pLysS (DE3), purified (nickel-chelation chromatography, gel filtration)
[2]
  stoichiometry N: 2
